Marks after values point to notes of the source that are not given here.
Assays:
[1] = Urinary kidney toxicity markers KIM-1 and NGAL by ELISA after a single IV dose of peptide-PMO conjugate; assay type: in vivo; settings: 25 mg/kg single IV dose, C57/BL10 female mice
Experimental: Urinary and serum markers of kidney and liver toxicity were measured following a single dose administration of saline or the relevant peptide-PMO conjugate to 8 week old adult C57/BL10 female mice (N=6 per group). A bolus IV (tail vein) injection was administered and urine collected Day 2 and Day 7 after administration. Animals were then scarified prior to necropsy in which kidney, liver, diaphragm, heart, TA, gastric and serum were collected. Urine clinical indicators: KIM-1, NGAL were measured by ELISA (R&D cat #MKM100) with samples diluted to fit within standard curve. Values were normalised to urinary creatinine levels (Harwell) to account for urine protein concentration.
Group 2—25 mg/kg Pip8b4-PMO SMN
Group 3—25 mg/kg DPEP5.17-PMO SMN

human SMN2-gene = assay: Full-length SMN2 transcript qPCR in tissues of adult SMA mice after intravenous peptide-PMO conjugate; assay type: in vivo
Source text: Smn1tm1Hung/wt; […]; […] Tissues were harvested one week post administration. […] Statistical significance determined by Student'[…]≤0.00005. […] ID NO.151), Exons 7-8 Rev: [NT] ID NO.152). […] [NT] ID NO.154). […] PolJ Forward: [NT] ID NO.155); PolJ Reverse: [NT]

[2] = system: SMN2 exon 7 inclusion in GM03813 SMA patient fibroblasts; assay: Cell screening of peptide-PMO conjugates for SMN2 exon 7 inclusion in human SMA patient fibroblast cell culture; assay type: cell-based; settings: 667 nM and 2 μM; for cell activity (SMN2 exon 7 inclusion): second screen, FIG. 5, qPCR; for cell activity (SMN2 exon 7 inclusion) relative to peptide 14: first screen, FIG. 4, qPCR
Experimental: In order to generate further peptide candidates containing a glycosylated Serine residue for in vivo evaluation, the inventors synthesized a range of similarly glycosylated peptides, conjugated them to the same PMO therapeutic and screened the resultant P-PMO conjugates in human SMA patient fibroblast cell culture, which assesses their ability to enter cell nuclei to give exon inclusion.
GM03813 (Coriell Institute) derived from SMA type I patient fibroblast were seeded out at 2500 cells/well in 100 μl Dulbecco's modified Eagle's medium (DMEM) with GlutaMAX and 5% fetal bovine serum (FBS) (Life Technologies, Inc.) in 96 well plates, and incubated for 16 h in a cell culture incubator (37° C., 5% CO2, 100% rel. humidity). On the next day cells were then treated with 10 μl P-PMO at different concentrations (in water) in duplicate for 24 hours. After removal of the supernatant, cells were washed once with PBS-buffer and were lysed in lysis buffer (10 mM Tris, 3 mM MgCl2, 1 mM CaCl2), 1% Triton X-100, 200 u/ml DNase I and 200 u/ml Proteinase K) for 10 min. Afterwards the lysate were transferred into a 96-well plate (Eppendorf twintec) and incubated at 75° C. for 15 min and subsequently cooled to 4° C. and used immediately. The mRNA levels of SMN2 FL, SMN2 Δ7 and GAPDH were quantified using Taqman-based qRT-PCR (Superscript® III Platinium® One Step qRT-PCR, Thermo Fisher) and SMN2 specific Primers and probes (purchased from IDT Integrated DNA Technologies). (19) SMN2 FL and Δ7 mRNAs were normalized to GAPDH. […]

[3] = adult SMA mice, 2x15 mg/kg IV approx. 48 hours apart, tissue 7 days post final administration, normalised to saline treated controls, Central Nervous System
[4] = adult SMA mice, 2x15 mg/kg IV approx. 48 hours apart, tissue 7 days post final administration, normalised to saline treated controls, spinal cord

Ac-RXRRBRR FS*RBRXR-B [Peptide 17]
urinary KIM-1 level normalised to creatinine, compared with peptide 6 ([1]; 2 days after administration): far lower
urinary KIM-1 level normalised to creatinine, compared with peptide 6 ([1]; 7 days post administration): lower
urinary NGAL level normalised to creatinine, compared with peptide 6 ([1]; 7 days post administration): lower
activity in cerebellum and cortex compared with peptide 6 (human SMN2-gene; FIG. 7, 2x15 mg/kg IV 48 hours apart, adult intermediate SMA mice): equivalent or improved activity
level of full length transcript (FLSMN) in all tissues (human SMN2-gene; FIG. 7, 2x15 mg/kg IV 48 hours apart, adult intermediate SMA mice, central spinal cord, peripheral skeletal muscle and liver): > 1 fold
cell penetration in several compartments of the central nervous system and the skeletal muscle compared with currently available peptides 1-7 (human SMN2-gene; Table 3 data): increased
full-length SMN2 transcripts, mean expression level, Brainstem (human SMN2-gene; [3]): 1.2
full-length SMN2 transcripts, mean expression level, Cerebellum (human SMN2-gene; [3]): 1.19*
full-length SMN2 transcripts, mean expression level, Cortex (human SMN2-gene; [3]): 1.27*
full-length SMN2 transcripts, mean expression level, Liver (human SMN2-gene; adult SMA mice, 2x15 mg/kg IV approx. 48 hours apart, tissue 7 days post final administration, normalised to saline treated controls, Off Target): 3.78
full-length SMN2 transcripts, mean expression level, Gastroc (human SMN2-gene; adult SMA mice, 2x15 mg/kg IV approx. 48 hours apart, tissue 7 days post final administration, normalised to saline treated controls, Skeletal Muscle (gastrocnemius)): 3.25****
full-length SMN2 transcripts, mean expression level, Quad (human SMN2-gene; adult SMA mice, 2x15 mg/kg IV approx. 48 hours apart, tissue 7 days post final administration, normalised to saline treated controls, Skeletal Muscle (quadriceps)): 2.68***
full-length SMN2 transcripts, mean expression level, TA (human SMN2-gene; adult SMA mice, 2x15 mg/kg IV approx. 48 hours apart, tissue 7 days post final administration, normalised to saline treated controls, Skeletal Muscle (tibialis anterior)): 3.00***
full-length SMN2 transcripts, mean expression level, Cervical (human SMN2-gene; [4]): 1.41*
full-length SMN2 transcripts, mean expression level, Lumbar (human SMN2-gene; [4]): 1.1
full-length SMN2 transcripts, mean expression level, Thoracic (human SMN2-gene; [4]): 1.39**
increase in cell penetration / exon inclusion compared with the currently available peptide conjugated to the same antisense oligonucleotide (human SMN2-gene; in vivo, Table 3 data, peptide 17 versus peptide 6, peptide 14 versus peptide 2): up to 60.2%

Ac-RXRRBRRS*S*RBRXR-G [Peptide 67]
cell activity (SMN2 exon 7 inclusion) [2]: retained good activity in cells

Ac-RXRRBRRXRS*RXRBRXR-G [Peptide 44]
cell activity (SMN2 exon 7 inclusion) relative to peptide 14 [2]: no significant effect on cell activity

Ac-RRBRS*FLRBRBRBR-G [Peptide 26]
cell activity (SMN2 exon 7 inclusion) relative to peptide 14 [2]: slightly less active only

Ac-RXRRS*RRBRBRXR-G [Peptide 58]
cell activity (SMN2 exon 7 inclusion) [2]: no significant alteration in activity levels

From patent US12583889B2, “Cell penetrating peptides” (Oxford University Innovation Limited, priority 2017, dated 2026)
